Reference: patent publication US20050112573A1, “Method of detecting toxic substance” (priority 2001, published 2005)

Test system: yeast genes (level of expressed mRNA)
Assay: DNA chip analysis of expressed mRNA of yeast genes after 2 h culture with a toxic chemical substance
Type: cell-based, Saccharomyces cerevisiae S288C
Experimental: Yeast (Saccharomyces cerevtisiae S288C (α SUC2mal mel gap2 CUP1)) were cultured at 25° C. on YPD medium (yeast extract 1%, polypepton 2%, glucose 2%). One of toxic chemical substances was added to the cell at logarithmic growth phase, and the cell was further cultured for two hours. Cell was cultured without any chemical substance in the same condition, and was used as control. Concentrations of the chemical substances were defined to inhibit the growth of the yeast but not lead to death.
After the completion of cultivation, the culture was centrifuged to collect the cells. To the cells, sodium acetate buffer (50 mM sodium acetate, 10 mM EDTA, 1% SDS) was added, and the mixture was shaken at 65° C. for five minutes, followed by returning to room temperature, and obtaining the supernatant, which procedure was repeated two times. To the supernatant, ½ amount of a solution of phenol/chloroform was added, and the mixture was centrifuged to give a supernatant, which was added with an equal amount of chloroform, and the mixture was centrifuged to give a supernatant. To the supernatant, an equal amount of isopropanol containing 0.3 M sodium acetate was added, and the mixture was allowed to stand at room temperature for 30 minutes, after which the mixture was centrifuged to give a sediment of the whole RNAs. Seventy % ethanol was added to the sediment, and the mixture was again centrifuged to give a sediment, which was then dried and dissolved in water. mRNA was isolated from the whole RNAs as followings. In view of the fact that a poly A chain is attached to the 3′ terminus of mRNA, a polynucleotide having a poly T structure which was immobilized on the surface of latex beads was used to trap the mRNA, and then the mRNA was washed and eluted with spine column (Oligotex-dT30<Super>mRNA Purification Kit, Takara). Reverse transcription of the mRNA was conducted with a reverse transcriptase (Super Script II Reverse Transcriptase; catalogue No. 18064-014, GibcoBRL) using fluorescence-labeled nucleotides to give cDNAs that were introduced with Cy3-dUTP or Cy5-dUTP during the reverse transcription.
The labeled cDNAs were dissolved in TE buffer (10 mM Tris-HCl/1 mM EDTA, pH8.0), and the solution was dropped on the DNA chip containing the whole genes of yeast (DNA Chip Research Inc. Japan) so that the cDNAs were hybridized on the DNA chip at 65° C. for over 12 hours. The fluoresces intensity of the DNA chip was read with a scanner, and the ratio relative to the fluorescence intensity resulting from the absence of chemical substance was estimated as the following, which is shown in Tables 1 to 9: [formula]
In the Tables, “Intensity” indicated in the rightmost column is a value of the level of expressed mRNA of each gene in control cells as divided by the average level of the expressions of the whole genes.

Compound: CCCCCCCCCCCCOS(=O)(=O)[O-].[Na+] [(18), sodium lauryl sulfate]
- The level of expressed mRNA in the presence of chemical substance/absence: YDR133C (gene YDR133C): 0.9
- The level of expressed mRNA in the presence of chemical substance/absence: YDR140W (gene YDR140W): 1.3
- The level of expressed mRNA in the presence of chemical substance/absence: YDR221W (gene YDR221W): 1.0
- The level of expressed mRNA in the presence of chemical substance/absence: YDR250C (gene YDR250C): 0.9
- The level of expressed mRNA in the presence of chemical substance/absence: YDR271C (gene YDR271C): 0.9
- The level of expressed mRNA in the presence of chemical substance/absence: YDR278C (gene YDR278C): 0.8
- The level of expressed mRNA in the presence of chemical substance/absence: YDR281C (gene YDR281C): 1.2
- The level of expressed mRNA in the presence of chemical substance/absence: YDR316W (gene YDR316W): 0.5
- The level of expressed mRNA in the presence of chemical substance/absence: YDR338C (gene YDR338C): 1.0
- The level of expressed mRNA in the presence of chemical substance/absence: YDR366C (gene YDR366C): 0.9
- level of expressed mRNA in the presence of chemical substance/in its absence (gene YDR380W): 0.8
- level of expressed mRNA in the presence of chemical substance/in its absence (gene YDR410C): 1.0
- The level of expressed mRNA in the presence of chemical substance/absence: YDR421W (gene YDR421W): 0.8
- The level of expressed mRNA in the presence of chemical substance/absence: YDR425W (gene YDR425W): 1.2
- The level of expressed mRNA in the presence of chemical substance/absence: YDR485C (gene YDR485C): 1.0
- level of expressed mRNA in the presence of chemical substance/in its absence (gene YDR487C): 1.9
- level of expressed mRNA in the presence of chemical substance/in its absence (gene YDR502C): 0.9
- The level of expressed mRNA in the presence of chemical substance/absence: YDR504C (gene YDR504C): 1.2
- level of expressed mRNA in the presence of chemical substance/in its absence (gene YEL011W): 2.5
- level of expressed mRNA in the presence of chemical substance/in its absence (gene YEL020C): 1.3
- The level of expressed mRNA in the presence of chemical substance/absence: YEL044W (gene YEL044W): 1.0
- level of expressed mRNA in the presence of chemical substance/in its absence (gene YER026C): 3.2
- level of expressed mRNA in the presence of chemical substance/in its absence (gene YER069W): 0.9
- The level of expressed mRNA in the presence of chemical substance/absence: YER092W (gene YER092W): 1.7
- The level of expressed mRNA in the presence of chemical substance/absence: YER182W (gene YER182W): 1.2
- The level of expressed mRNA in the presence of chemical substance/absence: YFL042C (gene YFL042C): 1.2
- level of expressed mRNA in the presence of chemical substance/in its absence (gene YFR015C): 1.2
- The level of expressed mRNA in the presence of chemical substance/absence: YFR026C (gene YFR026C): 1.1
- The level of expressed mRNA in the presence of chemical substance/absence: YFR056C (gene YFR056C): 0.8
- level of expressed mRNA in the presence of chemical substance/in its absence (gene YGL001C): 2.1
- level of expressed mRNA in the presence of chemical substance/in its absence (gene YGL022W): 0.7
- level of expressed mRNA in the presence of chemical substance/in its absence (gene YGL039W): 1.0
- The level of expressed mRNA in the presence of chemical substance/absence: YGL041C (gene YGL041C): 1.1
- The level of expressed mRNA in the presence of chemical substance/absence: YGL045W (gene YGL045W): 1.2
- The level of expressed mRNA in the presence of chemical substance/absence: YGL057C (gene YGL057C): 1.1
- The level of expressed mRNA in the presence of chemical substance/absence: YGL088W (gene YGL088W): 0.7
- level of expressed mRNA in the presence of chemical substance/in its absence (gene YGL104C): 1.3
- level of expressed mRNA in the presence of chemical substance/in its absence (gene YGL126W): 0.9
- level of expressed mRNA in the presence of chemical substance/in its absence (gene YGL134W): 1.3
- level of expressed mRNA in the presence of chemical substance/in its absence (gene YGL154C): 1.1
- The level of expressed mRNA in the presence of chemical substance/absence: YGL183C (gene YGL183C): 1.0
- level of expressed mRNA in the presence of chemical substance/in its absence (gene YGL209W): 1.5
- The level of expressed mRNA in the presence of chemical substance/absence: YGL223C (gene YGL223C): 1.0
- level of expressed mRNA in the presence of chemical substance/in its absence (gene YGL253W): 0.8
- The level of expressed mRNA in the presence of chemical substance/absence: YGR038W (gene YGR038W): 1.1
- level of expressed mRNA in the presence of chemical substance/in its absence (gene YGR060W): 1.6
- The level of expressed mRNA in the presence of chemical substance/absence: YGR139W (gene YGR139W): 0.8
- The level of expressed mRNA in the presence of chemical substance/absence: YGR156W (gene YGR156W): 0.8
- The level of expressed mRNA in the presence of chemical substance/absence: YGR198W (gene YGR198W): 1.0
- The level of expressed mRNA in the presence of chemical substance/absence: YGR210C (gene YGR210C): 0.7
- The level of expressed mRNA in the presence of chemical substance/absence: YGR211W (gene YGR211W): 0.5
- The level of expressed mRNA in the presence of chemical substance/absence: YGR237C (gene YGR237C): 1.0
- The level of expressed mRNA in the presence of chemical substance/absence: YGR243W (gene YGR243W): 4.4
- The level of expressed mRNA in the presence of chemical substance/absence: YGR250C (gene YGR250C): 2.1
- The level of expressed mRNA in the presence of chemical substance/absence: YGR266W (gene YGR266W): 1.0
- The level of expressed mRNA in the presence of chemical substance/absence: YGR277C (gene YGR277C): 1.1
- level of expressed mRNA in the presence of chemical substance/in its absence (gene YGR282C): 1.5
